Source: publication PMC9271885 (eBioMedicine, 2022)
Values joined by “and” are separate entries in the source; they are usually repeats but may differ in a detail not shown here. Equal values may be shown once. Read-outs that look alike come from different tables or passages of the source.

Assays:
[1] = Clinical course of the disease in infected hamsters (normalized weight, clinical signs); format: in vivo, Syrian hamsters
Procedure: Three-week-old female Syrian hamsters were provided by Janvier Labs (SPF status). Animals were maintained in ISOcage P - Bioexclusion System (Techniplast) with unlimited access to water/food and 14h/10h light/dark cycle. A wooden gnawing block and extra bedding material was provided as cage enrichment. Animals were weighed and monitored daily for the duration of the study to detect the appearance of any clinical signs of illness/suffering. General anesthesia was obtained with isoflurane (Isoflurin®, Axience). Euthanasia, which was also realized under general anesthesia, was performed by cervical dislocation.
Groups of 6 hamsters were intranasally infected with 10^4 TCID50 of virus. a Experimental timeline. b, f, j Viral replication in lung based on infectious titers (measured using a TCID50 assay) expressed in TCID50/g of lung (n=6 animals/group). c, g, k Viral replication in lung based on viral RNA yields (measured using an RT-qPCR assay) expressed in viral genome copies/g of lung (n=6 animals/group). d, h, l Plasma viral loads (measured using an RT-qPCR assay) are expressed in viral genome copies/mL of plasma (the dotted line indicates the detection threshold of the assay) (n=6 animals/group). e, i, m Clinical course of the disease (n=6 animals/group). Normalized weight at day n was calculated as follows: % of initial weight of the animal at day n. Data represent mean ± SD (Details in Supplementary Data 2).

SARS-CoV-2 [2] = conditions: Vero E6 cells at 48 h post-infection; read-out: 50% effective concentration (EC50); cited from earlier work
SARS-CoV-2 [3] = format: cell-based; conditions: bronchial human airway epithelium
Vero E6 cells = test: in vitro; conditions: African green monkey, 2 days
Procedure: One day prior to infection, 96-well culture plates were seeded with 5×10^4 Vero E6 or Caco-2 cells in 100µL assay medium per well (containing 2.5% FCS). […] After 15min, a preset amount of virus diluted in 25µL of assay medium was added to the wells. This quantity of virus was calibrated so that the viral replication was still in the exponential growth phase for the readout, as previously described, [28], [29] which correspond here to 150 TCID50 per well. Four “cell control” wells were supplemented with 50µL of assay medium without any compounds or virus. On each culture plate, a positive control compound (Remdesivir, BLDpharm) was added in duplicate with eight 2-fold serial dilutions (0.16µM to 20µM). Plates were incubated for 2 days at 37°C prior to quantification of the viral genome by real-time RT-PCR as described below. For the determination of the 50% cytotoxic concentrations (CC50; compound concentration required to reduce by 50% cell viability), the same culture conditions were used, without addition of the virus, and cell viability was measured using CellTiter Blue® (Promega) following manufacturer's instructions. EC50, EC90 and CC50 were determined using logarithmic interpolation as previously described.[28] The selectivity index of the compounds was calculated as the ratio of the CC50 over the EC50.

[4] = cited from earlier work
[5] = in vivo, cited from earlier work
[6] = Nitazoxanide IN 2.8mg/kg/day TID, inoculum 104 TCID50, sacrifice day 3, Figure 5, individual animals
[7] = Nitazoxanide IN 2.8mg/kg/day TID, inoculum 104 TCID50, sacrifice day 3, Figure SF 2, individual animals
[8] = Nitazoxanide per os 500mg/kg/day BID, inoculum 104 TCID50, sacrifice day 3, Figure 3, individual animals
[9] = Nitazoxanide per os 500mg/kg/day BID, inoculum 104 TCID50, sacrifice day 5, Figure 3, individual animals
[10] = Nitazoxanide per os 750mg/kg/day BID, inoculum 104 TCID50, sacrifice day 3, Figure 3, individual animals

CC(=O)Oc1ccccc1C(=O)Nc1ncc([N+](=O)[O-])s1 [NTZ, Nitazoxanide]
mean normalized weight vs untreated animals ([1]; NTZ 2.8mg/kg/day TID intranasal, 1 to 3 dpi, first experiment): significantly lower than that of untreated animals
mean normalized weight vs untreated animals ([1]; NTZ 2.8mg/kg/day TID intranasal, 1 to 3 dpi, repeated experiment): significantly lower than that of untreated animals
mean normalized weight vs untreated animals ([1]; NTZ 500mg/kg/day BID oral for 3 days, at 3 dpi): significantly lower than that of untreated animals
clinical signs of illness/suffering compared to untreated animals ([1]; NTZ 500mg/kg/day BID oral for 4 days, followed to 5 dpi): did not show any clinical signs of illness/suffering
mean normalized weight vs untreated animals ([1]; NTZ 750mg/kg/day TID oral for 3 days, at 2 dpi): significantly lower than that of untreated animals
Normalized weights Day 0 [1, 6]: 100
Normalized weights Day 1 [1, 6]: 90.2 and 91.4 and 94.7 and 92.3 and 86.3 and 91.5
Normalized weights Day 2 [1, 6]: 81.4 and 83.1 and 86.9 and 88.1 and 80.0 and 82.4
Normalized weights Day 3 [1, 6]: 70.4
Normalized weights Day 0 [1, 7]: 100
Normalized weights Day 1 [1, 7]: 92.6 and 97.1 and 95.9 and 101.1 and 97.4 and 94.0
Normalized weights Day 2 [1, 7]: 84.7 and 91.2 and 89.0 and 92.2 and 87.0 and 85.8
Normalized weights Day 0 [1, 8]: 100
Normalized weights Day 1 [1, 8]: 103.3 and 103.7 and 101.9 and 97.1 and 103.5 and 104.5
Normalized weights Day 2 [1, 8]: 100.2 and 95.2 and 98.6 and 92.0 and 97.9 and 99.6
Normalized weights Day 3 [1, 8]: 97.9 and 94.1 and 93.4 and 93.2
Normalized weights Day 0 [1, 9]: 100
Normalized weights Day 1 [1, 9]: 103.8 and 103.9 and 104.9 and 104.4 and 104.6 and 102.8
Normalized weights Day 2 [1, 9]: 96.9 and 95.0 and 102.9 and 95.3 and 100.2
Normalized weights Day 3 [1, 9]: 96.2 and 96.1
Normalized weights Day 4 [1, 9]: 83.8
Normalized weights Day 5 [1, 9]: 98.6 and 90.9 and 91.2 and 79.5 and 92.9
Normalized weights Day 0 [1, 10]: 100
Normalized weights Day 1 [1, 10]: 102.2 and 103.1 and 105.8 and 99.4 and 106.0 and 101.2
Normalized weights Day 2 [1, 10]: 95.2 and 96.5 and 95.6 and 90.1 and 90.2
Normalized weights Day 3 [1, 10]: 92.7
mean normalized weight vs untreated animals ([1]; histopathology experiment, NTZ 500mg/kg/day BID oral, at 3 dpi): significantly lower than that of untreated animals
Normalized weights Day 0 ([1]; infected hamsters, nitazoxanide 500mg/kg/day per os BID, Day 0, individual animals): 100
Normalized weights Day 1 ([1]; infected hamsters, nitazoxanide 500mg/kg/day per os BID, Day 1, individual animals): 100.5 and 102.7 and 103.7 and 103.5
Normalized weights Day 2 ([1]; infected hamsters, nitazoxanide 500mg/kg/day per os BID, Day 2, individual animals): 94.1 and 99.3 and 98.2
Normalized weights Day 3 ([1]; infected hamsters, nitazoxanide 500mg/kg/day per os BID, Day 3, individual animals): 92.9 and 96.2
Normalized weights Day 4 ([1]; infected hamsters, nitazoxanide 500mg/kg/day per os BID, Day 4, individual animals): 86.9
Normalized weights Day 5 ([1]; infected hamsters, nitazoxanide 500mg/kg/day per os BID, Day 5, individual animals): 90.1 and 88.3 and 85.4 and 93.9
EC50 (SARS-CoV-2 [2]): 2120 nM
effective NTZ concentrations ex vivo (SARS-CoV-2 [3]): 5 µM
effective NTZ concentrations ex vivo (SARS-CoV-2 [3]; conversion of 5µM): 1.54 µg/mL

O=C(Nc1ncc([N+](=O)[O-])s1)c1ccccc1O [TIZ, tizoxanide]
CC50 (Vero E6 cells): > 100000 nM
bound to plasma proteins [4]: 99%
Tmax ([5]; human): approximately 2 hours
apparent clearance [5]: 19.34 L/h
volume of distribution [5]: 38.68 L
